Key:
[1] = target: T1, Serine/threonine-protein kinase Chk1 (Homo sapiens) (UniProt O14757); experiment: Inhibition of human CHK1 at 18.6 nM by HotSpot assay relative to control
T1 sequence (whole entry): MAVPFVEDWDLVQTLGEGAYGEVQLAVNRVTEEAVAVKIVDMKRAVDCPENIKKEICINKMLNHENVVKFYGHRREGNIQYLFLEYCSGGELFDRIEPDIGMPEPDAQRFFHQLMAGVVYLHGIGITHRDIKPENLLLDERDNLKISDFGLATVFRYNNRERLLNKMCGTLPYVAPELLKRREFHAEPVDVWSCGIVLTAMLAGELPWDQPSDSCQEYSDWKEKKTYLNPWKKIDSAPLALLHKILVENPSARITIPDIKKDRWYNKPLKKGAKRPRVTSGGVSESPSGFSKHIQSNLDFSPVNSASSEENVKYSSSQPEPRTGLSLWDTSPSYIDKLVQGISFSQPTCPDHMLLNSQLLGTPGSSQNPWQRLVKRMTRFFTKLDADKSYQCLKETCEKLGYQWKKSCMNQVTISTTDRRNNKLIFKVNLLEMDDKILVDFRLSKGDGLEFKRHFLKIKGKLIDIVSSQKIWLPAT

[2] = target: Wee1-like protein kinase (Homo sapiens) (UniProt P30291); experiment: Inhibition of human WEE1 at 18.6 nM by HotSpot assay relative to control
[3] = target: Leukocyte tyrosine kinase receptor (Homo sapiens) (UniProt P29376); experiment: Inhibition of human LTK at 18.6 nM by HotSpot assay relative to control
[4] = target: SRSF protein kinase 2 (Homo sapiens) (UniProt P78362); experiment: Inhibition of human SRPK2 at 18.6 nM by HotSpot assay relative to control
Sequence of SRSF protein kinase 2 (Homo sapiens) (P78362 whole entry, looked up): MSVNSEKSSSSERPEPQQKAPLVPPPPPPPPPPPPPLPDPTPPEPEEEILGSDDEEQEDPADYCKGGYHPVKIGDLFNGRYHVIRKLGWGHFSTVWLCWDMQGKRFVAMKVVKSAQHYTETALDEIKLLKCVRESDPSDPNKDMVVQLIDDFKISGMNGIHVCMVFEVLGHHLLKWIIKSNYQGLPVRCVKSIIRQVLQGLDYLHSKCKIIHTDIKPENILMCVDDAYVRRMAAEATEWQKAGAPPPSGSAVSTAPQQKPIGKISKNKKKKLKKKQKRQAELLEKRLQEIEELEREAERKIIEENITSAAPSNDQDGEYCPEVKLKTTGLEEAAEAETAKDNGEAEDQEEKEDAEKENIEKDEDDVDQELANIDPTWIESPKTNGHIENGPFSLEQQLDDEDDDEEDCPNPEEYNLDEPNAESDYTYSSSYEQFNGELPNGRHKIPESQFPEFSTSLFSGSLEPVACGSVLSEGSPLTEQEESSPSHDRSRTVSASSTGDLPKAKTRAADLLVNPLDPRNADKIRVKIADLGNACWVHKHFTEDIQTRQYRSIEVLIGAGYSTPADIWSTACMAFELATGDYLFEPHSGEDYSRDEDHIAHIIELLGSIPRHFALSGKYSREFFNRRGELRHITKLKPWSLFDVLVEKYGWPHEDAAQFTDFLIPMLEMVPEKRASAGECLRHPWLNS

[5] = target: T2, Mitogen-activated protein kinase 12 (Homo sapiens) (UniProt P53778); experiment: Inhibition of human P38g at 18.6 nM by HotSpot assay relative to control
T2 sequence (whole entry): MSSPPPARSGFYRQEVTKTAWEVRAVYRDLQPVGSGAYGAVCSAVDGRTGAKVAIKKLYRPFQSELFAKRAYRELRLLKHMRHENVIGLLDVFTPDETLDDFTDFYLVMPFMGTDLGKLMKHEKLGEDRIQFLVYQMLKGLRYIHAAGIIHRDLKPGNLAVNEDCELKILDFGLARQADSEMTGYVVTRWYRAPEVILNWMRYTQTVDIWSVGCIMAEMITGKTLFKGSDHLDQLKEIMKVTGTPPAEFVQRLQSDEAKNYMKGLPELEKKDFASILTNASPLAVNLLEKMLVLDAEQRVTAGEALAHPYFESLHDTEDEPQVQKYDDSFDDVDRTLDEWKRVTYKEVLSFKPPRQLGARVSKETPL

[6] = target: Serine/threonine-protein kinase MARK2 (Homo sapiens) (UniProt Q7KZI7); experiment: Inhibition of human PAR-1Ba at 18.6 nM by HotSpot assay relative to control
Sequence of Serine/threonine-protein kinase MARK2 (Homo sapiens) (Q7KZI7 whole entry): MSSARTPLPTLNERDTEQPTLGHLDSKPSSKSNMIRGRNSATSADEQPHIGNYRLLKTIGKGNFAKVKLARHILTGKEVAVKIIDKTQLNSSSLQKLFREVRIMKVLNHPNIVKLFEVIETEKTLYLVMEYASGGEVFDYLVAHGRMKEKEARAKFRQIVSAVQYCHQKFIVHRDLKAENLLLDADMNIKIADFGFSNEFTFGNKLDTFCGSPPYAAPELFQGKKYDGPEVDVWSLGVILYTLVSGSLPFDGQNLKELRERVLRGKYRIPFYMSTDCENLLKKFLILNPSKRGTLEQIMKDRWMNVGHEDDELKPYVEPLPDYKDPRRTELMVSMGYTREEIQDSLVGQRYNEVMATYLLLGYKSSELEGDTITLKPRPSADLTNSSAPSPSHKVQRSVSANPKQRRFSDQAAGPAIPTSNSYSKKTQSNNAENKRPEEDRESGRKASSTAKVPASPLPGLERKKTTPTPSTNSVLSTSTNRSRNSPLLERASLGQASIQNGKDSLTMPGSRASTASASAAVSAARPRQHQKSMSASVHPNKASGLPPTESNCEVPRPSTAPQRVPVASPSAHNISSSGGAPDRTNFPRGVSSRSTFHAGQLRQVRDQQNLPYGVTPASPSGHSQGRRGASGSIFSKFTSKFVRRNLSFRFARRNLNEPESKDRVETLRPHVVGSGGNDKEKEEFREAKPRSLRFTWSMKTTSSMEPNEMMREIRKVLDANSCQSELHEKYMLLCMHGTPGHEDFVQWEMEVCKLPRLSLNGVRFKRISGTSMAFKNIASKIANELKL

[7] = target: Tyrosine-protein kinase Yes (Homo sapiens) (UniProt P07947); experiment: Inhibition of human YES1 at 18.6 nM by HotSpot assay relative to control
Sequence of Tyrosine-protein kinase Yes (Homo sapiens) (P07947 2-543 limits assumed): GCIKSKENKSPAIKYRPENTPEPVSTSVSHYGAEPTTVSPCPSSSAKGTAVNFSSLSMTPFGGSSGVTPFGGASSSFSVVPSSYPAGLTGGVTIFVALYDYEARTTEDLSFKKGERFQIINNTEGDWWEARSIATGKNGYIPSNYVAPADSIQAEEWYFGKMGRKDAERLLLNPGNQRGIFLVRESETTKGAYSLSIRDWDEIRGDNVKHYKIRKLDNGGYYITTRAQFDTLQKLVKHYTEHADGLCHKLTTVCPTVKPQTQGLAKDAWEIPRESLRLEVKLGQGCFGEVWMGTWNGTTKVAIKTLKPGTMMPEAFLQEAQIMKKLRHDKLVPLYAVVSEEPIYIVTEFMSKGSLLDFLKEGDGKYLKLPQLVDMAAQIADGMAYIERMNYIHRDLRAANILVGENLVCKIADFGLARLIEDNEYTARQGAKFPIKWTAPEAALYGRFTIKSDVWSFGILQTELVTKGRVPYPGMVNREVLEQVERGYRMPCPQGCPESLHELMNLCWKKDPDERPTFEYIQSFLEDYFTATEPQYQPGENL

[8] = target: Mitogen-activated protein kinase kinase kinase 7 (Homo sapiens) (UniProt O43318); experiment: Inhibition of human TAK1 at 18.6 nM by HotSpot assay relative to control
[9] = target: Protein kinase C beta type (Homo sapiens) (UniProt P05771); experiment: Inhibition of human PKCb2 at 18.6 nM by HotSpot assay relative to control
[10] = target: Mitogen-activated protein kinase 11 (Homo sapiens) (UniProt Q15759); experiment: Inhibition of human MAPK11 at 1.82 nM by HotSpot assay relative to control
Sequence of Mitogen-activated protein kinase 11 (Homo sapiens) (Q15759 whole entry): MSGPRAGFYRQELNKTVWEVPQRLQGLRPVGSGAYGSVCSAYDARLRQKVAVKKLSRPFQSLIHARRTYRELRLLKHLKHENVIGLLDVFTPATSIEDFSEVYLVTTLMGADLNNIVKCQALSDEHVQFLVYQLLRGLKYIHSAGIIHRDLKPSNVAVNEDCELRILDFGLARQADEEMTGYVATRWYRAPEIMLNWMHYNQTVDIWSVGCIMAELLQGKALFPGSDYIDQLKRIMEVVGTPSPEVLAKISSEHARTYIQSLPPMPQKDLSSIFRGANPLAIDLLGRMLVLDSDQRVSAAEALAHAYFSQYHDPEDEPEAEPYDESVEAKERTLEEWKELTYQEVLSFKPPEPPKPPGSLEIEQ

[11] = target: Serine/threonine-protein kinase Nek7 (Homo sapiens) (UniProt Q8TDX7); experiment: Inhibition of human NEK7 at 1.82 nM by HotSpot assay relative to control
Sequence of Serine/threonine-protein kinase Nek7 (Homo sapiens) (Q8TDX7 whole entry, looked up): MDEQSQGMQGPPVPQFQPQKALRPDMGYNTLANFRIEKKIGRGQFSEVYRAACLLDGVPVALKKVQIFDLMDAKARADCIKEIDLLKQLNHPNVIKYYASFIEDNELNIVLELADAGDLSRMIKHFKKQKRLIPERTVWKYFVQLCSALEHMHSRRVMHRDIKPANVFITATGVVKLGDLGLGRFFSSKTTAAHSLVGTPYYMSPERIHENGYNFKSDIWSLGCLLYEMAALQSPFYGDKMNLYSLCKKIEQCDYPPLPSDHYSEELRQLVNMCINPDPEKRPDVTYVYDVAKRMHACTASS

[12] = target: CDK9/cyclin T1 (Homo sapiens) (UniProt O60563+P50750); experiment: Inhibition of human CDK9/cyclin T1 at 1.82 nM by HotSpot assay relative to control; format: protein-complex assay
[13] = target: T3, Rhodopsin kinase GRK7 (Homo sapiens) (UniProt Q8WTQ7); experiment: Inhibition of human GRK7 at 1.82 nM by HotSpot assay relative to control
T3 sequence (whole entry): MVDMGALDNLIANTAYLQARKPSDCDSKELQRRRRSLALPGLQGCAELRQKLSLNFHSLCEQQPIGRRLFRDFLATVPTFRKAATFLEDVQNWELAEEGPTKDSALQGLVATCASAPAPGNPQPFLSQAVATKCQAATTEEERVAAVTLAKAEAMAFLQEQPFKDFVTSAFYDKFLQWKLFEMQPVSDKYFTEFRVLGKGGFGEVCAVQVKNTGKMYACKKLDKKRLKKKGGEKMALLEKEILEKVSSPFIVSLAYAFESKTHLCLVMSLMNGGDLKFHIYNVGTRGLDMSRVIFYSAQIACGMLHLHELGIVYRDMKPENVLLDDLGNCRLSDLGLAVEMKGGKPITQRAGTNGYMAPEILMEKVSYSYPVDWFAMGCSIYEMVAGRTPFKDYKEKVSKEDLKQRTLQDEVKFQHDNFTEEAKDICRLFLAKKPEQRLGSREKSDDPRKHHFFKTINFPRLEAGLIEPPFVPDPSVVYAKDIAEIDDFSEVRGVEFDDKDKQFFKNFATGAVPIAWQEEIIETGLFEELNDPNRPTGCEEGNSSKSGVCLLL

[14] = target: Serine/threonine-protein kinase 16 (Homo sapiens) (UniProt O75716); experiment: Inhibition of human STK16 at 1.82 nM by HotSpot assay relative to control
Sequence of Serine/threonine-protein kinase 16 (Homo sapiens) (O75716 whole entry, canonical isoform): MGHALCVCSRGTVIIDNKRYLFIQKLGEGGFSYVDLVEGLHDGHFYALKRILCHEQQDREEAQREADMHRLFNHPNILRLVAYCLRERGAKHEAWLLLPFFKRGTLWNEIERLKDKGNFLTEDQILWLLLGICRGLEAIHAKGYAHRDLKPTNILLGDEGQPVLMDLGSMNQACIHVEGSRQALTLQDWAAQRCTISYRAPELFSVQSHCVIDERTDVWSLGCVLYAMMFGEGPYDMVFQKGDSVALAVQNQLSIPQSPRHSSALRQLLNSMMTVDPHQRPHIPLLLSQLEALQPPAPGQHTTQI

[15] = target: Casein kinase I isoform delta (Homo sapiens) (UniProt P48730); experiment: Inhibition of human CK1d at 1.82 nM by HotSpot assay relative to control
Sequence of Casein kinase I isoform delta (Homo sapiens) (P48730 whole entry, looked up, canonical isoform): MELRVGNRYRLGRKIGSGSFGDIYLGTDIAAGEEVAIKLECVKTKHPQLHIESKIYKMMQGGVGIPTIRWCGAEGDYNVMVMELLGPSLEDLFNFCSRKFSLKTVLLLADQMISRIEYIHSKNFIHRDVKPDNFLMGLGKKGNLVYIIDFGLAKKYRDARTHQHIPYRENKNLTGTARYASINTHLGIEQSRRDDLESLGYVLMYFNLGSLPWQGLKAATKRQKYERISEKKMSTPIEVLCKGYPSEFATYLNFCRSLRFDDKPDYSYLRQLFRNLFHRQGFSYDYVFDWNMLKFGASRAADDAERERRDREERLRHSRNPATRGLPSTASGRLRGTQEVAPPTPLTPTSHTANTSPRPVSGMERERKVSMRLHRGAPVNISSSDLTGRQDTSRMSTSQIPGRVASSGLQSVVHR

[16] = target: Mitogen-activated protein kinase 3 (Homo sapiens) (UniProt P27361); experiment: Inhibition of human ERK1 at 1.82 nM by HotSpot assay relative to control
Sequence of Mitogen-activated protein kinase 3 (Homo sapiens) (P27361 whole entry): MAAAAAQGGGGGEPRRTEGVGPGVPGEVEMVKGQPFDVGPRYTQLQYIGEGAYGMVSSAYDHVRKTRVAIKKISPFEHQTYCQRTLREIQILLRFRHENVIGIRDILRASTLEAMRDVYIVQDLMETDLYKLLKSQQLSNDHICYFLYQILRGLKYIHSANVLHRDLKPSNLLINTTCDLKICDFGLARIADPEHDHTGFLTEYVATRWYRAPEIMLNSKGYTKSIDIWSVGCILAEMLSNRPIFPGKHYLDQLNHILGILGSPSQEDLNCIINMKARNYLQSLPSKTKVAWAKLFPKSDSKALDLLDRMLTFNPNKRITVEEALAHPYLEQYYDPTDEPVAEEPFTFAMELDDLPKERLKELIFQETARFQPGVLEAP

[17] = target: Serine/threonine-protein kinase 33 (Homo sapiens) (UniProt Q9BYT3); experiment: Inhibition of human STK33 at 1.82 nM by HotSpot assay relative to control
Sequence of Serine/threonine-protein kinase 33 (Homo sapiens) (Q9BYT3 whole entry, looked up): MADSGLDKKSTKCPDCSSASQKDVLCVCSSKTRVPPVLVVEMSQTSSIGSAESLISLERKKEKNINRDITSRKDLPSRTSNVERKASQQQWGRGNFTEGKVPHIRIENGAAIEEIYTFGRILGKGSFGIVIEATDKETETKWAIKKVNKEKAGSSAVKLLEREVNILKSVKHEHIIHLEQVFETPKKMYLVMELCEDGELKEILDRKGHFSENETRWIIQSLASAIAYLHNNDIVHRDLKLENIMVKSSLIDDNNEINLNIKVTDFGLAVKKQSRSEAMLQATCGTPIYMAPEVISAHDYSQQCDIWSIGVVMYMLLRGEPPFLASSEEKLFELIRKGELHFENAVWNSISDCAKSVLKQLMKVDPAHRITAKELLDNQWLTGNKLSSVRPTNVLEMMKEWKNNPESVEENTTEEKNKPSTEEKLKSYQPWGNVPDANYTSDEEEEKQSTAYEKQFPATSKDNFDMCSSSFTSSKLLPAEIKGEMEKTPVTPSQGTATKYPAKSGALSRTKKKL

[18] = target: Calcium/calmodulin-dependent protein kinase kinase 2 (Homo sapiens) (UniProt Q96RR4); experiment: Inhibition of human CAMKK2 at 1.82 nM by HotSpot assay relative to control
Sequence of Calcium/calmodulin-dependent protein kinase kinase 2 (Homo sapiens) (Q96RR4 2-588 limits assumed): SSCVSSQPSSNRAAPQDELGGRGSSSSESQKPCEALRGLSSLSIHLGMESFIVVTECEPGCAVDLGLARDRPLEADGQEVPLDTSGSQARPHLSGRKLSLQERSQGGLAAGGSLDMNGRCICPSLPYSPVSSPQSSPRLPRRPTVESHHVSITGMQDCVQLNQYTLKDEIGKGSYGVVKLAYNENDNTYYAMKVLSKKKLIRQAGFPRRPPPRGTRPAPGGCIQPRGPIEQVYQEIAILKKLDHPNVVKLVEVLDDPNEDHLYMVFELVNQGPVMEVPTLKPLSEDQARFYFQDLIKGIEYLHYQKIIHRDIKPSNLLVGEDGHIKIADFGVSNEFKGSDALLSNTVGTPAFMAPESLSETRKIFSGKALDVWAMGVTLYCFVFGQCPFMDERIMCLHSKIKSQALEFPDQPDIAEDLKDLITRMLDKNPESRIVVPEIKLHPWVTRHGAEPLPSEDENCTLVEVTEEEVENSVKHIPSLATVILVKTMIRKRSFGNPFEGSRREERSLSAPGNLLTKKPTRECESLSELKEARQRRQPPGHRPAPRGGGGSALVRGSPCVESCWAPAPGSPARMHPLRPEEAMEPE

SMILES | inhibition [1] [%] | inhibition [2] [%] | inhibition [3] [%] | inhibition [4] [%] | inhibition [5] [%] | inhibition [6] [%] | inhibition [7] [%] | inhibition [8] [%] | inhibition [9] [%] | inhibition [10] [%] | inhibition [11] [%] | inhibition [12] [%] | inhibition [13] [%] | inhibition [14] [%] | inhibition [15] [%] | inhibition [16] [%] | inhibition [17] [%] | inhibition [18] [%]
C[C@]1(O)C[C@@H](c2nc(-c3ccc4ccc(-c5ccccc5)nc4c3)c3c(N)nccn32)C1 | -5.11 | 7.34 | -0.44 | -1.64 | -7.84 | -3.78 | 4.32 | 1.98 | -7.92 | – | – | – | – | – | – | – | – | –
C[C@@]1(C(=O)Nc2ccc(F)nc2)CCCN1c1nc(Nc2cc(C3CC3)n[nH]2)c2cccn2n1 | – | – | – | – | – | – | – | – | – | -1.71 | -3.98 | 1.5 | 4.43 | -1.36 | 0.92 | -2.81 | 1.95 | 26.5

From ChEMBL document CHEMBL5653615 (J Biol Chem, 2013)
